According to ChEMBL document CHEMBL4184197 (Bioorg Med Chem, 2018):

Assays:
[1] = target: L-type calcium channel (Homo sapiens, UniProt O60840+Q01668+Q13698+Q13936); test: Binding affinity to L-type calcium channel (unknown origin) at 10 uM relative to control; type: protein assay; conditions: read-out: Activity
[2] = tested on: Salmonella typhimurium; test: Mutagenicity in Salmonella typhimurium TA98 in absence of rat liver S9 fraction by Ames test; type: toxicity, organism-based; conditions: salmonella enterica subsp. enterica serovar typhimurium
[3] = tested on: Salmonella typhimurium; test: Mutagenicity in Salmonella typhimurium TA100 in absence of rat liver S9 fraction by Ames test; type: toxicity, organism-based; conditions: salmonella enterica subsp. enterica serovar typhimurium
[4] = tested on: CHO-K1; test: Genotoxicity in CHOK1 cells in absence of rat liver S9 fraction by fluorescence imaging based micronucleus assay; type: toxicity, cell-based, Cricetulus griseus; conditions: chinese hamster
[5] = target: Adrenergic receptor alpha-2 (Homo sapiens) (UniProt P08913+P18825+P18089); test: Binding affinity to alpha2 receptor (unknown origin) at 10 uM relative to control; type: protein assay
[6] = species on record: Homo sapiens; test: Binding affinity to central-type benzodiazepine receptor (unknown origin) at 10 uM relative to control
[7] = target: Beta-2 adrenergic receptor (Homo sapiens) (UniProt P07550); test: Binding affinity to recombinant human beta 2 adrenoceptor at 10 uM after 120 mins by scintillation counting analysis relative to control
[8] = target: Cannabinoid receptor 1 (Homo sapiens) (UniProt P21554); test: Binding affinity to recombinant human CB1 at 10 uM after 120 mins by scintillation counting analysis relative to control
[9] = target: Gastrin/cholecystokinin type B receptor (Homo sapiens) (UniProt P32239); test: Binding affinity to recombinant human CCK2 at 10 uM after 60 mins by scintillation counting analysis relative to control
[10] = target: D(2) dopamine receptor (Homo sapiens) (UniProt P14416); test: Binding affinity to recombinant human dopamine receptor D2S at 10 uM after 60 mins by scintillation counting analysis relative to control
[11] = target: Galanin receptor type 2 (Homo sapiens) (UniProt O43603); test: Binding affinity to recombinant human GAL2 receptor at 10 uM after 120 mins by scintillation counting analysis relative to control
[12] = target: C-C chemokine receptor type 1 (Homo sapiens) (UniProt P32246); test: Binding affinity to recombinant human CCR1 receptor at 10 uM after 120 mins by scintillation counting analysis relative to control
[13] = target: Tumor necrosis factor receptor superfamily member 1A (Homo sapiens) (UniProt P19438); test: Binding affinity to recombinant human TNFalpha receptor at 10 uM after 120 mins by scintillation counting analysis relative to control
[14] = target: Histamine H1 receptor (Homo sapiens) (UniProt P35367); test: Binding affinity to recombinant human histamine H1 receptor at 10 uM after 60 mins by scintillation counting analysis relative to control
[15] = target: Muscarinic acetylcholine receptor M2 (Homo sapiens) (UniProt P08172); test: Binding affinity to muscarinic M2 receptor (unknown origin)
[16] = target: Muscarinic acetylcholine receptor M3 (Homo sapiens) (UniProt P20309); test: Binding affinity to recombinant human muscarinic M3 receptor at 10 uM after 60 mins by scintillation counting analysis relative to control
[17] = target: Muscarinic acetylcholine receptor M5 (Homo sapiens) (UniProt P08912); test: Binding affinity to recombinant human muscarinic M5 receptor at 10 uM after 60 mins by scintillation counting analysis relative to control
[18] = target: Substance-P receptor (Homo sapiens) (UniProt P25103); test: Binding affinity to human NK1 receptor at 10 uM after 30 mins by scintillation counting analysis relative to control
[19] = target: Neuromedin-K receptor (Homo sapiens) (UniProt P29371); test: Binding affinity to recombinant human NK3 receptor at 10 uM after 120 mins by scintillation counting analysis relative to control
[20] = target: Nociceptin receptor (Homo sapiens) (UniProt P41146); test: Binding affinity to recombinant human NOP receptor at 10 uM after 60 mins by scintillation counting analysis relative to control
[21] = species on record: Homo sapiens; test: Binding affinity to phencyclidine receptor (unknown origin) at 10 uM relative to control
[22] = target: 5-hydroxytryptamine receptor 1A (Homo sapiens) (UniProt P08908); test: Binding affinity to recombinant human 5-HT1A receptor at 10 uM after 60 mins by scintillation counting analysis relative to control
[23] = target: 5-hydroxytryptamine receptor 1B (Homo sapiens) (UniProt P28222); test: Binding affinity to recombinant human full length 5-HT1B receptor at 10 uM after 90 mins by scintillation counting analysis relative to control
[24] = target: 5-hydroxytryptamine receptor 3A (Homo sapiens) (UniProt P46098); test: Binding affinity to recombinant human 5-HT3 receptor at 10 uM after 120 mins by scintillation counting analysis relative to control
[25] = target: Somatostatin receptor (Homo sapiens) (UniProt P35346+P30874+P31391+P30872+P32745); test: Binding affinity to somatostatin receptor (unknown origin) at 10 uM relative to control; type: protein assay
[26] = species on record: Rattus norvegicus; test: Binding affinity to rat SKCa channel at 10 uM after 60 mins by scintillation counting analysis relative to control
[27] = species on record: Homo sapiens; test: Binding affinity to chloride channel (unknown origin) at 10 uM relative to control
[28] = target: Sodium-dependent serotonin transporter (Homo sapiens) (UniProt P31645); test: Binding affinity to 5-HT transporter (unknown origin) at 10 uM relative to control
[29] = target: cGMP-dependent 3',5'-cyclic phosphodiesterase (Homo sapiens) (UniProt O00408); test: Binding affinity to recombinant human PDE2A1 at 10 uM after 20 mins by scintillation counting analysis relative to control
[30] = target: 3',5'-cyclic-AMP phosphodiesterase 4D (Homo sapiens) (UniProt Q08499); test: Binding affinity to recombinant human PDE4D2 at 10 uM after 20 mins by scintillation counting analysis relative to control
[31] = target: Beta-secretase 2 (Homo sapiens) (UniProt Q9Y5Z0); test: Binding affinity to BACE-2 (unknown origin) at 10 uM relative to control
[32] = target: Endothelin-converting enzyme 1 (Homo sapiens) (UniProt P42892); test: Binding affinity to ECE-1 (unknown origin) at 10 uM relative to control
[33] = species on record: Homo sapiens; test: Binding affinity to elastase (unknown origin) at 10 uM relative to control
[34] = target: Caspase-8 (Homo sapiens) (UniProt Q14790); test: Binding affinity to recombinant human caspase 8 at 10 uM after 45 mins by fluorescence assay relative to control
[35] = target: Neprilysin (Homo sapiens) (UniProt P08473); test: Binding affinity to neutral endopeptidase (unknown origin) at 10 uM by relative to control
[36] = target: Stromelysin-1 (Homo sapiens) (UniProt P08254); test: Binding affinity to human MMP3 at 10 uM after 30 mins by fluorescence assay relative to control
[37] = target: MAO-A (Homo sapiens, UniProt P21397); test: Binding affinity to human MAO-A at 10 uM after 20 mins by spectrophotometric analysis relative to control; conditions: read-out: Activity
[38] = target: MAO-B (amine oxidase [flavin-containing] B) (Homo sapiens, UniProt P27338); test: Binding affinity to recombinant human MAO-B at 10 uM after 60 mins by luminescence analysis relative to control; conditions: read-out: Activity
MAO-B (amine oxidase [flavin-containing] B), sequence (P27338 whole entry): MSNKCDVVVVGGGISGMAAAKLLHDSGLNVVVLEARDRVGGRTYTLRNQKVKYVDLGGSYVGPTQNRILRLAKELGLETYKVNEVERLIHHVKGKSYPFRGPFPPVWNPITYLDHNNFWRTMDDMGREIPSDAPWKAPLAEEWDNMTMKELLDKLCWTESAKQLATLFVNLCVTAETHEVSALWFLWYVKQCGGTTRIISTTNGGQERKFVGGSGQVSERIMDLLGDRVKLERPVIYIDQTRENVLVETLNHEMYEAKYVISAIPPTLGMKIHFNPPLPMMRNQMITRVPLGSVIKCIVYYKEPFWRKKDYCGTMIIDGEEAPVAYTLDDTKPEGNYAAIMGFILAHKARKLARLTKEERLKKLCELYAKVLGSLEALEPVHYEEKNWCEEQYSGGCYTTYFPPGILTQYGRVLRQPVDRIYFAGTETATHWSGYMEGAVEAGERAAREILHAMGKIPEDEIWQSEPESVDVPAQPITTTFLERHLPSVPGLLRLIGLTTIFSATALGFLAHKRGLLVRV

Substance-P receptor (Homo sapiens), sequence (P25103 whole entry): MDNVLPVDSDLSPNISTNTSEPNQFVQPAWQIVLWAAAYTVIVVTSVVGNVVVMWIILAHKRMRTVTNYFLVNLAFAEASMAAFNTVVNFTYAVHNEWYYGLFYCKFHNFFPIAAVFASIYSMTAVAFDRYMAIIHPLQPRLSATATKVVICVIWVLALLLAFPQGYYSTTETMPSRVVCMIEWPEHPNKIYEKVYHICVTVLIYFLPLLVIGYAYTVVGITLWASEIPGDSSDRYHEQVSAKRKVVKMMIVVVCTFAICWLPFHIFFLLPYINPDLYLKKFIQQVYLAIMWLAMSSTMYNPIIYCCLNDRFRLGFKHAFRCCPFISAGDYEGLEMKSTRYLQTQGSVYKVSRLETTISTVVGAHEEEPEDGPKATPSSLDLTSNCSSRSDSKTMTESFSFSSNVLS
Tumor necrosis factor receptor superfamily member 1A (Homo sapiens), sequence (P19438 whole entry): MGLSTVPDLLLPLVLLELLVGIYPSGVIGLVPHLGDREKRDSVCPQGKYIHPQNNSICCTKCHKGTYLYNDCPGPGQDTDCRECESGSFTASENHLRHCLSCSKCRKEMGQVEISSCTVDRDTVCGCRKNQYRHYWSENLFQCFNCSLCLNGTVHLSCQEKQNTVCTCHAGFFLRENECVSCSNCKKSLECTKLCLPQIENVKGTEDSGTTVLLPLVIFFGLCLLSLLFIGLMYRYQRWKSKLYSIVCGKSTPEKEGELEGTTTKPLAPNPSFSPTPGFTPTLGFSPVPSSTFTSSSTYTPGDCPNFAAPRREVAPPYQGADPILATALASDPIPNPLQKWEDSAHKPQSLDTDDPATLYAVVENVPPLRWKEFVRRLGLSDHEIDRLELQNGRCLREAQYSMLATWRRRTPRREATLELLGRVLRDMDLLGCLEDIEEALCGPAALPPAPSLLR
Sodium-dependent serotonin transporter (Homo sapiens), sequence (P31645 whole entry, looked up): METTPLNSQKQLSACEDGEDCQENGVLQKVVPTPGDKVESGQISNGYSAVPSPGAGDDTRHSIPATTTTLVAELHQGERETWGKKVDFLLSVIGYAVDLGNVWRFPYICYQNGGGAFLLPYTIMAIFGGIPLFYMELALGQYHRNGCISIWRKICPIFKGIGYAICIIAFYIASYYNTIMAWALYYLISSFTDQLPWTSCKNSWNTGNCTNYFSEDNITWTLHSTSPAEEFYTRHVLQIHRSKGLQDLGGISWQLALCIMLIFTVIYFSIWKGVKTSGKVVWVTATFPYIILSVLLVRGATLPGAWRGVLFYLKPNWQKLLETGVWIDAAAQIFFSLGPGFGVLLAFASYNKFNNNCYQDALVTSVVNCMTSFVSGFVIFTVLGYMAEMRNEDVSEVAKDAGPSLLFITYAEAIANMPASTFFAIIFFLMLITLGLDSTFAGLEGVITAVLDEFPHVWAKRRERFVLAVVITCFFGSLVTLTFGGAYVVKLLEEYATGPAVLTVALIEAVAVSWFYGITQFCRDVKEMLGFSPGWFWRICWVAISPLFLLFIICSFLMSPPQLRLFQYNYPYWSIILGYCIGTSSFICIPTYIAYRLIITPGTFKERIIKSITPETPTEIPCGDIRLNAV
Stromelysin-1 (Homo sapiens), sequence (P08254 100-477 limits assumed): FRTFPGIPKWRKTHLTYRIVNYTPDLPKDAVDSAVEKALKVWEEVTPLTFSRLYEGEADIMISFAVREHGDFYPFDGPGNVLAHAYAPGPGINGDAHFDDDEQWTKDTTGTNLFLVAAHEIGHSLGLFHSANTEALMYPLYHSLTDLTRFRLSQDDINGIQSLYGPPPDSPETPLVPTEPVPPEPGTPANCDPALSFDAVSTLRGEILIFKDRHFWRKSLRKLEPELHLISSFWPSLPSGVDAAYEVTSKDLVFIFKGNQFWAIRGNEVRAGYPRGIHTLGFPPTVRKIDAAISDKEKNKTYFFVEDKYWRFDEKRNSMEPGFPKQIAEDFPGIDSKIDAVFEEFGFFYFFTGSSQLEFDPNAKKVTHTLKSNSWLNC
Cannabinoid receptor 1 (Homo sapiens), sequence (P21554 whole entry): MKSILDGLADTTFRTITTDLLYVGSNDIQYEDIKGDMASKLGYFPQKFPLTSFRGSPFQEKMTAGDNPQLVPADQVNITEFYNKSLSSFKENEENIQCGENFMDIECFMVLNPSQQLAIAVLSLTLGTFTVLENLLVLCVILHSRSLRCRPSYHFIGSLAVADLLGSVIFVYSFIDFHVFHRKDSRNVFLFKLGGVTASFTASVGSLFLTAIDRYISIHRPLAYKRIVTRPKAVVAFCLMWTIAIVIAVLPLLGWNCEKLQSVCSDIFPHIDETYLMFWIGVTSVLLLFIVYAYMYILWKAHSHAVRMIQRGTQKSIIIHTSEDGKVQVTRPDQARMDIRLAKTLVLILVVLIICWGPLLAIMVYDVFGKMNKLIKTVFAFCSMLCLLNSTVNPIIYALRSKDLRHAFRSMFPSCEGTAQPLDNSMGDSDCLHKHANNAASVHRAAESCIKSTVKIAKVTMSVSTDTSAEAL
cGMP-dependent 3',5'-cyclic phosphodiesterase (Homo sapiens), sequence (O00408 whole entry): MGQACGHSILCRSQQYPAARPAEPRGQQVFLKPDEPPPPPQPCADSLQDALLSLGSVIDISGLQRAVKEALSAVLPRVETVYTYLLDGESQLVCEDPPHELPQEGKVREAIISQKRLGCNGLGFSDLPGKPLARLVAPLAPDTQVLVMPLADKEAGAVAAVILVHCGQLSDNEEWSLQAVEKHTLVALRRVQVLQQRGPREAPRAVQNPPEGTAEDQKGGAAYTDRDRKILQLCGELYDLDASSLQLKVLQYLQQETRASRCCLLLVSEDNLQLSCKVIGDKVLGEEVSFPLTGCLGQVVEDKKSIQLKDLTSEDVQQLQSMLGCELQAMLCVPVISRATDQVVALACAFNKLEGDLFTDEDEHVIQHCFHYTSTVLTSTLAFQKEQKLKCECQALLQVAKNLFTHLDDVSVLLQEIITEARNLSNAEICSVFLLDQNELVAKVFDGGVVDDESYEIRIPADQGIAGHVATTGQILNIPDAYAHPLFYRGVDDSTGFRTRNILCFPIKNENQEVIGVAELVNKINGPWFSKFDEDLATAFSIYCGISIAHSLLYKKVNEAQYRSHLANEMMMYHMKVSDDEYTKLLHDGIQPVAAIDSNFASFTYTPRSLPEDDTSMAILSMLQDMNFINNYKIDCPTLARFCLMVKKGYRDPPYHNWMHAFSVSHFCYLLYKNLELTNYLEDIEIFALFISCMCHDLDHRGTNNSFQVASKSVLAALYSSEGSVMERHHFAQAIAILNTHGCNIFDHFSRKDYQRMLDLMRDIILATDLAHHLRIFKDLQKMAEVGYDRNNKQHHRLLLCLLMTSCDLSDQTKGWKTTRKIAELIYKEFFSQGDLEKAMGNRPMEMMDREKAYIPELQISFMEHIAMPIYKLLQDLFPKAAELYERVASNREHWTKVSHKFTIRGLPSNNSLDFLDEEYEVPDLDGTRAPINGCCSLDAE
Galanin receptor type 2 (Homo sapiens), sequence (O43603 whole entry): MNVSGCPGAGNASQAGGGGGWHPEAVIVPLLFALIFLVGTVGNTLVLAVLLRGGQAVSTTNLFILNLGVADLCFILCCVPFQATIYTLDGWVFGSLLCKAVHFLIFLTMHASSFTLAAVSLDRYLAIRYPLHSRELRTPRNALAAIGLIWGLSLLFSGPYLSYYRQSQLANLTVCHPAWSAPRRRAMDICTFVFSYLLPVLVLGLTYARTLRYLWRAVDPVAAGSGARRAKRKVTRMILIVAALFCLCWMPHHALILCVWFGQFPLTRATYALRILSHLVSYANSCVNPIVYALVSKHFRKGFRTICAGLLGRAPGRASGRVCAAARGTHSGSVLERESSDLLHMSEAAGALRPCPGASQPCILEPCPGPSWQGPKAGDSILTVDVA
Neprilysin (Homo sapiens), sequence (P08473 whole entry): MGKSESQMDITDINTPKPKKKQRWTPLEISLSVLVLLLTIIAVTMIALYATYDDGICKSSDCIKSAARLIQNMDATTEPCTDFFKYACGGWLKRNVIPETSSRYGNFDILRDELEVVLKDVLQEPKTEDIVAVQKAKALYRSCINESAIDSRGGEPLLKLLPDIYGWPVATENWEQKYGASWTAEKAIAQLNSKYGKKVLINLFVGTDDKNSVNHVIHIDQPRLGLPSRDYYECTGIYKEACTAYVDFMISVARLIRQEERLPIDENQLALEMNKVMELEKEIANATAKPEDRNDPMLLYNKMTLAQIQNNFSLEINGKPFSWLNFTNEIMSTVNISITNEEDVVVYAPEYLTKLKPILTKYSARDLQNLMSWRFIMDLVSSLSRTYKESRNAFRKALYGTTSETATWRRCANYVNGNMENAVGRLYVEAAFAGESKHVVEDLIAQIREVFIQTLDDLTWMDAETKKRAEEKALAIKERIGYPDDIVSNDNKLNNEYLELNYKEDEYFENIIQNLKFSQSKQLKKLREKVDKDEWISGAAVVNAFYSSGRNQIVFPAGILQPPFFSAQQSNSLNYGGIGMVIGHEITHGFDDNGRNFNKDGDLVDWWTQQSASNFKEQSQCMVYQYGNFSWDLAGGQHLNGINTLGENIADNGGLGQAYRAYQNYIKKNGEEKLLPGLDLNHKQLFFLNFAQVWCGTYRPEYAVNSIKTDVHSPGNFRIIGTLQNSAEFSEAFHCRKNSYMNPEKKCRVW

CCOc1c(Cl)cc(C(=O)Nc2ccc(C(=O)O)c(C)c2)cc1OC(C)C
activity at 10 µM [1]: ≤ 25% | Activity [2]: Non-Toxic | Activity [3]: Non-Toxic | Activity [4]: Non-Toxic | Activity [5]: < 25% | Activity [6]: < 25% | Activity [7]: < 25% | Activity [8]: < 25% | Activity [9]: < 25% | Activity [10]: < 25% | Activity [11]: < 25% | Activity [12]: < 25% | Activity [13]: < 25% | Activity [14]: < 25% | Activity [15]: < 25% | Activity [16]: < 25% | Activity [17]: < 25% | Activity [18]: < 25% | Activity [19]: < 25% | Activity [20]: < 25% | Activity [21]: < 25% | Activity [22]: < 25% | Activity [23]: < 25% | Activity [24]: < 25% | Activity [25]: < 25% | Activity [26]: < 25% | Activity [27]: < 25% | Activity [28]: < 25% | Activity [29]: < 25% | Activity [30]: < 25% | Activity [31]: < 25% | Activity [32]: < 25% | Activity [33]: < 25% | Activity [34]: < 25% | Activity [35]: < 25% | Activity [36]: < 25% | activity at 20 min, 10 µM [37]: ≤ 25% | activity at 1 h, 10 µM [38]: ≤ 25%
